# Structures can show the parent of a compound that is named as a salt.
# Molecular target: T1, human CTPS1 (Homo sapiens, UniProt P17812)
# T1 construct: purchased Proteros biostructures GmbH
# T1 sequence (P17812 1-591): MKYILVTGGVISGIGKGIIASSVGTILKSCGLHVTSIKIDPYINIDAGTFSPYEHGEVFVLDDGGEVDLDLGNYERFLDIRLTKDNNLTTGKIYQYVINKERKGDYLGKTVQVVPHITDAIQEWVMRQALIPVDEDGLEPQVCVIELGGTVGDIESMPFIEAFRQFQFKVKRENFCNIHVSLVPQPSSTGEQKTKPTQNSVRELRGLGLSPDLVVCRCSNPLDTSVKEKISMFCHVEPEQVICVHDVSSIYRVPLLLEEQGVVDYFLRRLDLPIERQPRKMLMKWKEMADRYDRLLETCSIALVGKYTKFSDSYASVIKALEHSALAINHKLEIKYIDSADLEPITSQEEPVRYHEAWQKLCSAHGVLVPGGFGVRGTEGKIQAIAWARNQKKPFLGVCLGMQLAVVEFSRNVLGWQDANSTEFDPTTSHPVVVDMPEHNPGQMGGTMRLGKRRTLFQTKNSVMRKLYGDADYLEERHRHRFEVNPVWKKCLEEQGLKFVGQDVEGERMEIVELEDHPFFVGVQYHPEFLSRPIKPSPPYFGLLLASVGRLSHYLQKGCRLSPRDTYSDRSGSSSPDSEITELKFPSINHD
# Test: Human CTPS1 enzyme inhibition (ADP-Glo Max assay)
# Format: biochemical
# Conditions: Table 17, 25° C., read-out: CTPS1 (Human CTPS1 Enzyme Inhibition data grouped by potency range)
# In short: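 ADP-Glo Max luminescence detection of ATP-to-ADP conversion by the enzyme, in 50 mM Tris, 10 mM MgCl2, 0.01% Tween-20, pH 8.0, with 2 mM L-cysteine added fresh. Enzyme preincubated with compound 10 minutes at 25° C. Percentage inhibition calculated per compound concentration.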
row,Structure (SMILES),IC50
1,O=C(Nc1ccc(-c2cncc(C(F)(F)F)n2)cn1)C1CCc2sc(NS(=O)(=O)C3CC3)nc21 (centres unmarked) [T169],100 to 1000 nM
2,CCC(CC)(C(=O)Nc1ccc(-c2cncc(Cl)c2)cc1)c1csc(NS(=O)(=O)C2CC2)n1 [T120],< 100 nM
3,"CC(C)(C(=O)Nc1ccc(-c2cncnc2)cc1)c1csc(NS(=O)(=O)C2CC2)n1 [T18, 2-(2-(cyclopropanesulfonamido)thiazol-4-yl)-2-methyl-N-(4-(pyrimidin-5-yl)phenyl)propanamide]",< 100 nM
4,CC(C)C(C(=O)Nc1ccc(-c2ccccc2)cc1)c1csc(NS(=O)(=O)C2CC2)n1 (centres unmarked) [T86],1000 to 10000 nM

# Now from value to compound:
row,IC50,Structure (SMILES)
1,< 100 nM,CCOc1cncc(-c2ccc(NC(=O)C(CC)c3csc(NS(=O)(=O)C4CC4)n3)c(F)c2)c1 (centres unmarked) [T199]
2,< 100 nM,"CCC(C(=O)Nc1ccc(-c2cncc(OCC(F)(F)F)n2)cc1)c1csc(NS(=O)(=O)C2CC2)n1 (single isomer, unassigned) [T223]"
3,< 100 nM,CCC(C(=O)Nc1ccc(-c2cncc(OC3CC3)n2)cc1)c1csc(NS(=O)(=O)C2CC2)n1 (centres unmarked) [T77]
4,< 100 nM,"CCC(C(=O)Nc1ccc(-c2cncc(Cl)c2)cc1)c1csc(NS(=O)(=O)C2CC2)n1 (single isomer, unassigned) [T10, N-(4-(5-chloropyridin-3-yl)phenyl)-2-(2-(cyclopropanesulfonamido)thiazol-4-yl)butanamide.HCl]"
5,< 100 nM,CCOc1cncc(-c2ccc3c(c2)CCN3C(=O)C(CC)c2csc(NS(=O)(=O)C3CC3)n2)n1 (centres unmarked) [T206]
6,< 100 nM,CCCOc1cncc(-c2ccc(NC(=O)C(CC)c3csc(NS(=O)(=O)C4CC4)n3)cc2)n1 (centres unmarked) [T75]
7,< 100 nM,CCC(C(=O)Nc1ccc(-c2cncc(Cl)c2)cc1F)c1csc(NS(=O)(=O)C2CC2)n1 (centres unmarked) [T203]
8,100 to 1000 nM,CCC(C(=O)Nc1ccc(-c2cncc(C#N)n2)cc1)c1csc(NS(=O)(=O)C2CC2)n1 (centres unmarked) [T79]
9,< 100 nM,"CCOc1cncc(-c2ccc(NC(=O)C(CC)c3csc(NS(=O)(=O)C4CC4)n3)cc2)n1 (single isomer, unassigned) [T204]"
10,1000 to 10000 nM,CCC(C(=O)Nc1ccc(-c2cncc(C#N)n2)cn1)c1csc(NS(=O)(=O)C2CC2)n1 (centres unmarked) [T178]

# Same assay, conditions: Table 18, additional potency data, 25° C., read-out: CTPS1 (Human CTPS1 Enzyme Inhibition data grouped by potency range)
row,Structure (SMILES),IC50
1,"CC(C)(C(=O)Nc1ccc(-c2cncc(C#N)c2)cc1C(F)(F)F)c1csc(NS(=O)(=O)C2CC2)n1 [T344, N-(4-(5-cyanopyridin-3-yl)-2-(trifluoromethyl)phenyl)-2-(2-(cyclopropanesulfonamido)thiazol-4-yl)-2-methylpropanamide]",< 100 nM
2,"CC(C)Oc1cncc(-c2ccc(NC(=O)C(C)(C)c3csc(NS(C)(=O)=O)n3)cc2)n1 [T395, N-(4-(6-isopropoxypyrazin-2-yl)phenyl)-2-methyl-2-(2-(methylsulfonamido)thiazol-4-yl)propanamide]",< 100 nM
3,"COC(C(=O)Nc1ccc(-c2cncc(C(F)(F)F)n2)cc1F)c1csc(NS(=O)(=O)C2CC2)n1 (single isomer, unassigned) [T459]",< 100 nM
4,"COC(C(=O)Nc1ccc(-c2cncc(OC(C)C)n2)cc1)c1csc(NS(=O)(=O)C2CC2)n1 (centres unmarked) [T411, 2-(2-(cyclopropanesulfonamido)thiazol-4-yl)-N-(4-(6-isopropoxypyrazin-2-yl)phenyl)-2-methoxyacetamide]",< 100 nM
5,"CCOc1cncc(-c2ccc(NC(=O)C(C)(C)c3nc(NS(=O)(=O)C4CC4)sc3C)c(F)c2)n1 [T358, 2-(2-(cyclopropanesulfonamido)-5-methylthiazol-4-yl)-N-(4-(6-ethoxypyrazin-2-yl)-2-fluorophenyl)-2-methylpropanamide]",< 100 nM
6,"NC(C(=O)Nc1ccc(-c2cncc(C(F)(F)F)n2)cc1F)c1csc(NS(=O)(=O)C2CC2)n1 (centres unmarked) [T418, 2-Amino-2-(2-(cyclopropanesulfonamido)thiazol-4-yl)-N-(2-fluoro-4-(6-(trifluoromethyl)pyrazin-2-yl)phenyl)acetamide]",100 to 1000 nM
7,"CC(C)(C(=O)Nc1ccc(-c2cncc(C(F)(F)F)n2)cc1)c1csc(NS(=O)(=O)C2CCCC2)n1 [T334, 2-(2-(cyclopentanesulfonamido)thiazol-4-yl)-2-methyl-N-(4-(6-(trifluoromethyl)pyrazin-2-yl)phenyl)propanamide]",100 to 1000 nM
8,"COC(C)(C)c1cncc(-c2ccc(NC(=O)C(C)(C)c3csc(NS(=O)(=O)C4CC4)n3)c(F)c2)n1 [T353, 2-(2-(cyclopropanesulfonamido)thiazol-4-yl)-N-(2-fluoro-4-(6-(2-methoxypropan-2-yl)pyrazin-2-yl)phenyl)-2-methylpropanamide]",100 to 1000 nM
9,"CC(C)(C(=O)Nc1ccc(-c2cccnc2)cc1)c1csc(NS(=O)(=O)C2CCCC2)n1 [T333, 2-(2-(cyclopentanesulfonamido)thiazol-4-yl)-2-methyl-N-(4-(pyridin-3-yl)phenyl)propanamide]",1000 to 10000 nM
10,"Cc1cc(NC(=O)C(C)(C)c2csc(NS(=O)(=O)C3CC3)n2)c(F)cc1-c1cncc(Cl)c1 [T352, N-(4-(5-chloropyridin-3-yl)-2-fluoro-5-methylphenyl)-2-(2-(cyclopropanesulfonamido)thiazol-4-yl)-2-methylpropanamide]",100 to 1000 nM
11,"O=C(Nc1ccc(-c2cncc(Cl)c2)cc1)C1(c2csc(NS(=O)(=O)C3CC3)n2)CC1 [T373, N-(4-(5-chloropyridin-3-yl)phenyl)-1-(2-(cyclopropanesulfonamido)thiazol-4-yl)cyclopropane-1-carboxamide]",< 100 nM
12,"CCc1cncc(-c2ccc(NC(=O)C(C)(C)c3csc(NS(=O)(=O)C4CC4)n3)c(F)c2)n1 [T356, 2-(2-(cyclopropanesulfonamido)thiazol-4-yl)-N-(4-(6-ethylpyrazin-2-yl)-2-fluorophenyl)-2-methylpropanamide]",< 100 nM
13,CCOc1cncc(-c2ccc(NC(=O)C(C)(C)c3csc(NS(=O)(=O)CC4CC4)n3)c(F)c2)n1 [T433],< 100 nM
14,"CCS(=O)(=O)Nc1nc(C(C)(C)C(=O)Nc2ccc(-c3cncc(C(F)(F)F)n3)cc2)cs1 [T387, 2-(2-(ethylsulfonamido)thiazol-4-yl)-2-methyl-N-(4-(6-(trifluoromethyl)pyrazin-2-yl)phenyl)propanamide]",< 100 nM
15,"COc1cc(-c2cncc(Cl)c2)c(F)cc1NC(=O)C(C)(C)c1csc(NS(=O)(=O)C2CC2)n1 [T369, N-(4-(5-chloropyridin-3-yl)-5-fluoro-2-methoxyphenyl)-2-(2-(cyclopropanesulfonamido)thiazol-4-yl)-2-methylpropanamide]",100 to 1000 nM
16,"Cc1sc(NS(=O)(=O)C2CC2)nc1C(C)(C)C(=O)Nc1ccc(-c2cncc(C(F)(F)F)c2)cc1F [T350, 2-(2-(cyclopropanesulfonamido)-5-methylthiazol-4-yl)-N-(2-fluoro-4-(5-(trifluoromethyl)pyridin-3-yl)phenyl)-2-methylpropanamide]",100 to 1000 nM

# Results, then the compound that gave them:
row,IC50,Structure (SMILES)
1,100 to 1000 nM,"CC(C)c1cncc(-c2ccc(NC(=O)C(C)(C)c3csc(NS(=O)(=O)C4CC4)n3)nc2)n1 [T336, 2-(2-(cyclopropanesulfonamido)thiazol-4-yl)-N-(5-(6-isopropylpyrazin-2-yl)pyridin-2-yl)-2-methylpropanamide]"
2,< 100 nM,"CCOc1cncc(-c2ccc(NC(=O)C(N)c3csc(NS(=O)(=O)C4CC4)n3)c(F)c2)n1 (centres unmarked) [T419, 2-Amino-2-(2-(cyclopropanesulfonamido)thiazol-4-yl)-N-(4-(6-ethoxypyrazin-2-yl)-2-fluorophenyl)acetamide hydrochloride]"
3,< 100 nM,"COCCC(C(=O)Nc1ccc(-c2cncc(C(F)(F)F)n2)cc1F)c1csc(NS(=O)(=O)C2CC2)n1 (centres unmarked) [T399, 2-(2-(cyclopropanesulfonamido)thiazol-4-yl)-N-(2-fluoro-4-(6-(trifluoromethyl)pyrazin-2-yl)phenyl)-4-methoxybutanamide]"
4,< 100 nM,"CCOc1cncc(-c2ccc(NC(=O)C(CC)c3csc(NS(=O)(=O)C4CC4)n3)c(F)c2)n1 (single isomer, unassigned) [T413, 2-(2-(cyclopropanesulfonamido)thiazol-4-yl)-N-(4-(6-ethoxypyrazin-2-yl)-2-fluorophenyl)butanamide]"
5,< 100 nM,CCOc1cncc(-c2ccc(NC(=O)C(CC)c3csc(NS(=O)(=O)C4CC4)n3)c(OC(F)(F)F)c2)n1 (centres unmarked) [T442]
6,< 100 nM,CCOc1cncc(-c2cnc(NC(=O)C(OC)c3csc(NS(=O)(=O)C4CC4)n3)c(F)c2)n1 (centres unmarked) [T445]
7,< 100 nM,"CCOc1cncc(-c2ccc(NC(=O)C(OC)c3csc(NS(=O)(=O)C4CC4)n3)cc2)n1 (single isomer, unassigned) [T330, 2-(2-(cyclopropanesulfonamido)thiazol-4-yl)-N-(4-(6-ethoxypyrazin-2-yl)phenyl)-2-methoxyacetamide]"
8,1000 to 10000 nM,"COC(C)(C)c1cncc(-c2ccc(NC(=O)C(C)(C)c3csc(NS(=O)(=O)C4CC4)n3)nc2)n1 [T339, 2-(2-(cyclopropanesulfonamido)thiazol-4-yl)-N-(5-(6-(2-methoxypropan-2-yl)pyrazin-2-yl)pyridin-2-yl)-2-methylpropanamide]"

# Reference: patent US11655246B2, “Aminothiazole compounds as inhibitors of CTPS1” (STEP PHARMA S.A.S., priority 2017, dated 2023)
